Where two headings read alike, the source gives them in different places.
Key:
Assay in all cases: Test C pre/postemergence
Assay type in all cases: in vivo
[1] = tested on: velvetleaf (Abutilon theophrasti); details: Abutilon theophrasti; for pest or weed control at 31 g/ha: 31 g ai/ha; for pest or weed control at 62 g/ha: 62 g ai/ha; for pest or weed control at 125 g/ha: 125 g ai/ha; for pest or weed control at 250 g/ha: 250 g ai/ha
Method in brief: (§1)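 Rating scale 0–100: 0 means no effect, 100 complete control; taken visually 12 to 14 days post-treatment versus controls. Pre- and postemergence greenhouse applications, postemergence at 1- to 4-leaf stage, non-phytotoxic solvent with surfactant as carrier.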

[2] = tested on: lambsquarters (Chenopodium album); details: Chenopodium album; for pest or weed control at 31 g/ha: 31 g ai/ha; for pest or weed control at 62 g/ha: 62 g ai/ha; for pest or weed control at 125 g/ha: 125 g ai/ha; for pest or weed control at 250 g/ha: 250 g ai/ha
Method in brief: as §1

[3] = tested on: johnsongrass (Sorghum halepense); details: Sorghum halepense; for pest or weed control at 31 g/ha: 31 g ai/ha; for pest or weed control at 62 g/ha: 62 g ai/ha; for pest or weed control at 125 g/ha: 125 g ai/ha; for pest or weed control at 250 g/ha: 250 g ai/ha
Method in brief: as §1

[4] = tested on: common (oilseed) sunflower (Helianthus annuus); details: Helianthus annuus, pre-emergence, Preemergence, read-out: Plant response rating, Sunflower
Method in brief: as §1

[5] = tested on: kochia (Kochia scoparia); details: Bassia scoparia; for pest or weed control at 31 g/ha: 31 g ai/ha; for pest or weed control at 62 g/ha: 62 g ai/ha; for pest or weed control at 125 g/ha: 125 g ai/ha; for pest or weed control at 250 g/ha: 250 g ai/ha
Method in brief: as §1

[6] = tested on: common ragweed (Ambrosia elatior); details: Ambrosia artemisiifolia; for pest or weed control at 31 g/ha: 31 g ai/ha; for pest or weed control at 62 g/ha: 62 g ai/ha; for pest or weed control at 125 g/ha: 125 g ai/ha; for pest or weed control at 250 g/ha: 250 g ai/ha
Method in brief: as §1

[7] = post-emergence, Postemergence, scale 0 to 100 (0 no effect, 100 complete control), read-out: Velvetleaf plant response rating
[8] = pre-emergence, Preemergence, scale 0 to 100, 0 no effect, 100 complete control, read-out: Plant response rating, Velvetleaf
[9] = pre-emergence, Preemergence, scale 0 to 100, read-out: Plant response rating, Velvetleaf
[10] = post-emergence, Postemergence, scale 0 to 100 (0 no effect, 100 complete control), read-out: Lambsquarters plant response rating
[11] = pre-emergence, Preemergence, scale 0 to 100, 0 no effect, 100 complete control, read-out: Plant response rating, Lambsquarters
[12] = pre-emergence, Preemergence, scale 0 to 100, read-out: Plant response rating, Lambsquarters
[13] = post-emergence, Postemergence, scale 0 to 100 (0 no effect, 100 complete control), read-out: Johnsongrass plant response rating
[14] = pre-emergence, Preemergence, scale 0 to 100, 0 no effect, 100 complete control, read-out: Plant response rating, Johnsongrass
[15] = pre-emergence, Preemergence, scale 0 to 100, read-out: Plant response rating, Johnsongrass
[16] = post-emergence, Postemergence, scale 0 to 100 (0 no effect, 100 complete control), read-out: Kochia plant response rating
[17] = pre-emergence, Preemergence, scale 0 to 100, 0 no effect, 100 complete control, read-out: Plant response rating, Kochia
[18] = pre-emergence, Preemergence, scale 0 to 100, read-out: Plant response rating, Kochia
[19] = post-emergence, Postemergence, scale 0 to 100 (0 no effect, 100 complete control), read-out: Ragweed plant response rating
[20] = pre-emergence, Preemergence, scale 0 to 100, 0 no effect, 100 complete control, read-out: Plant response rating, Ragweed
[21] = pre-emergence, Preemergence, scale 0 to 100, read-out: Plant response rating, Ragweed

`COC(=O)c1nc(C2CC2)nc(N)c1Br` [Compound 2, methyl 6-amino-5-bromo-2-cyclopropyl-4-pyrimidinecarboxylate] gave a pest or weed control at 31 g/ha ([1]; post-emergence, Postemergence, read-out: Plant response rating (scale of 0 to 100), Velvetleaf) of 65%, a pest or weed control at 62 g/ha [1, 7] of 70% and a pest or weed control at 125 g/ha [1, 7] of 80%. It also gave a pest or weed control at 250 g/ha ([1]; post-emergence, Postemergence, scale 0 to 100, read-out: Plant response rating, Velvetleaf) of 100%, a pest or weed control at 31 g/ha [1, 8] of 20% and a pest or weed control at 62 g/ha [1, 8] of 50%. For the same molecule, the pest or weed control at 125 g/ha [1, 9] was 75%, the pest or weed control at 250 g/ha [1, 9] was 90% and the pest or weed control at 31 g/ha ([2]; post-emergence, Postemergence, read-out: Plant response rating (scale of 0 to 100), Lambsquarters) was 100%. It also gave a pest or weed control at 62 g/ha [2, 10] of 100%, a pest or weed control at 125 g/ha [2, 10] of 100% and a pest or weed control at 250 g/ha ([2]; post-emergence, Postemergence, scale 0 to 100, read-out: Plant response rating, Lambsquarters) of 100%. For the same molecule, the pest or weed control at 31 g/ha [2, 11] was 90%, the pest or weed control at 62 g/ha [2, 11] was 100% and the pest or weed control at 125 g/ha [2, 12] was 100%. The pest or weed control at 250 g/ha [2, 12] was 100%, the pest or weed control at 31 g/ha ([3]; post-emergence, Postemergence, read-out: Plant response rating (scale of 0 to 100), Johnsongrass) was 0% and the pest or weed control at 62 g/ha [3, 13] was 0%. It also gave a pest or weed control at 125 g/ha [3, 13] of 25%, a pest or weed control at 250 g/ha ([3]; post-emergence, Postemergence, scale 0 to 100, read-out: Plant response rating, Johnsongrass) of 60% and a pest or weed control at 31 g/ha [3, 14] of 0%. The pest or weed control at 62 g/ha [3, 14] was 0%, the pest or weed control at 125 g/ha [3, 15] was 0% and the pest or weed control at 250 g/ha [3, 15] was 40%. The pest or weed control at 31 g/ha ([4]; 31 g ai/ha, scale 0 to 100, 0 no effect, 100 complete control) was 20%, the pest or weed control at 62 g/ha ([4]; 62 g ai/ha, scale 0 to 100, 0 no effect, 100 complete control) was 100% and the pest or weed control at 125 g/ha ([4]; 125 g ai/ha, scale 0 to 100) was 100%. For the same molecule, the pest or weed control at 250 g/ha ([4]; 250 g ai/ha, scale 0 to 100) was 100%, the pest or weed control at 31 g/ha ([5]; post-emergence, Postemergence, read-out: Plant response rating (scale of 0 to 100), Kochia) was 85% and the pest or weed control at 62 g/ha [5, 16] was 95%. The pest or weed control at 125 g/ha [5, 16] was 95%, the pest or weed control at 250 g/ha ([5]; post-emergence, Postemergence, scale 0 to 100, read-out: Plant response rating, Kochia) was 100% and the pest or weed control at 31 g/ha [5, 17] was 75%. The pest or weed control at 62 g/ha [5, 17] was 90%, the pest or weed control at 125 g/ha [5, 18] was 95% and the pest or weed control at 250 g/ha [5, 18] was 100%. It also gave a pest or weed control at 31 g/ha ([6]; post-emergence, Postemergence, read-out: Plant response rating (scale of 0 to 100), Ragweed) of 65%, a pest or weed control at 62 g/ha [6, 19] of 85% and a pest or weed control at 125 g/ha [6, 19] of 90%. The pest or weed control at 250 g/ha ([6]; post-emergence, Postemergence, scale 0 to 100, read-out: Plant response rating, Ragweed) was 95%, the pest or weed control at 31 g/ha [6, 20] was 0% and the pest or weed control at 62 g/ha [6, 20] was 0%. For the same molecule, the pest or weed control at 125 g/ha [6, 21] was 0% and the pest or weed control at 250 g/ha [6, 21] was 0%.

— US8802597B2, “Herbicidal pyrimidines” (E I du Pont de Nemours and Company, priority 2003, dated 2014)
